From patent publication EP1902732A1, “PROPHYLACTIC/THERAPEUTIC AGENT FOR HER2-EXPRESSING CANCER” (Takeda Pharmaceutical Company Limited, priority 2005, dated 2006)

Legend:
[1] = system: BT-474 breast cancer cell; assay: Sulphorhodamine-B (SRB) cell proliferation assay; format: cell-based; details: Homo sapiens, BT-474, 120 h; HER2-expressing cell; cultured for five days; SRB staining
Method: (§1) BT-474 breast cancer cell (purchased from ATCC) was used as a human HER2-expressing cell and MDA-MB-231 breast cancer cell (purchased from ATCC) was used as a HER2-nonexpressing cell. These cells were seeded into a 96-multiwell plate (BT-474: 3.0 x 10^4 cells/well, MDA-MB-231: 1.5 x 10^4 cells/well), and cultured overnight in a carbon dioxide gas incubator (5% CO2, 37°C). A 4-fold dilution series of a mitochondrial respiratory chain complex-inhibiting compound (complex I: rotenone) was added starting from a final concentration of 10 µmol/L in 10 steps, and further cultured for five days. At the end of culture, the broth containing rotenone was removed, the cells were washed with a phosphoric acid buffer, immobilized with 5% trichloroacetic acid solution, and added with 0.4% (W/V) sulphorhodamine-B (SRB) dye solution (dissolved in 1% acetic acid) for staining the cellular protein. Subsequently, the SRB dye solution was removed from the plate and the plate was washed with a 1% acetic acid solution. Then, 100 µL 10 mM Tris buffer solution was added for extraction and dye dissolution, and absorbance at an absorption wavelength of 550 nm was measured to determine the cellular quantity as a protein amount (Journal of National Cancer Institute. Vol. 82, pp. 1107-1112, 1990). […]

[2] = system: MDA-MB-231 breast cancer cell; assay: Sulphorhodamine-B (SRB) cell proliferation assay; format: cell-based; details: Homo sapiens, MDA-MB-231, 120 h; HER2-nonexpressing cell; cultured for five days; SRB staining
Method: as §1

HER2 = assay: Western blotting of phosphorylated HER2 in BT-474 cells; format: cell-based, human
Method: (§2) Human HER2-expressing human breast cancer cell line BT-474 (purchased from American Tissue Culture Collection (ATCC)) was seeded into a 24-multiwell plate (BT-474: 1.2 x 10^5 cells/well), and cultured overnight in a carbon dioxide gas incubator (5% CO2, 37°C). A 4-fold dilution series of a mitochondrial respiratory chain complex inhibiting compound (complex I: rotenone, complex III: antimycin, complex V: oligomycin: Wako Pure Chemical Industries) was added starting from a final concentration of 1 µmol/L in 5 steps while continuing culture. After 2 hours, the broth was removed, and the cells were lysed with an SDS sample buffer (200 µL). Western blotting analysis was performed as follows. Specifically, this cell lysate (8 µL) was separated by an SDS-PAGE method (gel concentration: 7.5-15%) (Analytical Biochemistry, No. 166, pp. 368-379, 1987), and transferred to a nitrocellulose membrane (BioRad). Then, an antibody specific to phosphorylated HER2 (Cell signaling technology, Code# 2244), an anti-phosphorylated Akt antibody specific to downstream antiapoptotic signal transducing molecule Akt (Cell signaling technology, Code# 9271) and an anti-phosphorylated MAPK antibody specific to downstream proliferation signal transducing molecule MAPK (Cell signaling technology, Code# 9101) were used to detect the antibody with an ECL system (Amersham) to quantify the amount of phosphorylated protein by an image analysis.
(§3) Human HER2-expressing human cancer cell line BT-474 (purchased from ATCC) was seeded into a 24-multiwell plate (1.2 x 10^5 cells/well) and cultured overnight in a carbon dioxide gas incubator (20% O2, 5% CO2, 37°C). A 3-fold dilution series of metformin that activates AMPK (The Journal of Biological Chemistry, Vol. 279, No. 42, pp. 43940-43951, 2004) was added starting from a final concentration of 15 mmol/L in 5 steps while continuing culture. Two hours later, the broth was removed and the cells were lysed with an SDS sample buffer (200 µL). This cell lysate (8 µL) was separated by an SDS-PAGE method (gel concentration: 7.5-15%) (Analytical Biochemistry, No. 166, pp. 368-379, 1987). Then, western blotting analysis was performed in the same manner as in Example 1 to quantify phosphorylated HER2, phosphorylated Akt and phosphorylated MAPK.
(§4) Human HER2-expressing human breast cancer cell line BT-474 (purchased from American Tissue Culture Collection (ATCC)) was seeded into a 24-multiwell plate (BT-474: 1.2 x 10^5 cells/well), and cultured overnight in a carbon dioxide gas incubator (5% CO2, 37°C). Mitochondrial respiratory chain complex 1-inhibiting compound rotenone (Wako Pure Chemical Industries) was added in 5 steps at final concentrations of 1, 0.333, 0.111, 0.033 and 0.011 µmol/L while continuing culture. Two hours later, the broth was removed and the cells were lysed with an SDS sample buffer (200 µL). Then, this cell lysate was used to perform western blotting analysis. Specifically, this cell lysate (8 µL) was separated by an SDS-PAGE method (gel concentration: 7.5-15%) (Analytical Biochemistry, No. 166, pp. 368-379, 1987) and transferred to a nitrocellulose membrane (BioRad). Then, an antibody specific to phosphorylated HER2 (Cell signaling technology, Code# 2244), an AMPK antibody specific to AMPK (Cell signaling technology, Code# 2535) and an anti-phosphorylated AMPK antibody specific to phosphorylated AMPK (Cell signaling technology, Code# 2532) were used to detect the antibody by chemiluminescent detection with an ECL system (Amersham) to quantify an amount of phosphorylated protein with LAS-1000 plus image analysis device (FUJIFILM).
Human HER2-expressing human breast cancer cell line BT-474 (purchased from American Tissue Culture Collection (ATCC)) was seeded into a 24-multiwell plate (BT-474: 1.2 x 10^5 cells/well) and cultured overnight in a carbon dioxide gas incubator (5% CO2, 37°C). […]

Akt = assay: Western blotting of phosphorylated Akt in BT-474 cells; format: cell-based, human; details: Example 2, 4-fold dilution series from 1 µmol/L in 5 steps, 2 hours
Method: as §2, §3

MAPK = assay: Western blotting of phosphorylated MAPK in BT-474 cells; format: cell-based, human; details: Example 2, 4-fold dilution series from 1 µmol/L in 5 steps, 2 hours
Method: as §2, §3

phosphorylated AMPK = assay: Western blotting of phosphorylated AMPK in BT-474 cells; format: cell-based, human; details: Example 6, 1, 0.333, 0.111, 0.033 and 0.011 µmol/L, two hours
Method: as §4

AMPK = assay: Western blotting of AMPK protein amount in BT-474 cells; format: cell-based, human; details: Example 6, 1, 0.333, 0.111, 0.033 and 0.011 µmol/L, two hours
Method: as §4

EGFR = assay: Western blotting of phosphorylated EGFR in A431 cells; format: cell-based, human; details: Example 9, 4-fold dilution series from 1 µmol/L in 5 steps, 2 hours
Method: Human EGFR-expressing human epidermal cancer cell line A431 (purchased from American Tissue Culture Collection (ATCC)) was seeded into a 24-multiwell plate (A431:6x10^4 cells/well), and cultured overnight in a carbon dioxide gas incubator (5% CO2, 37°C). A 4-fold dilution series of a mitochondria complex-inhibiting compound (complex I: rotenone, Wako Pure Chemical Industries) was added in 5 steps starting from a final concentration of 1 µmol/L while continuing culture. The broth was removed 2 hours later, and cells were lysed with an SDS sample buffer (200 µL). Western blotting analysis was conducted as follows. Specifically, this cell lysate (8 µL) was separated by an SDS-PAGE method (gel concentration: 7.5-15%) (Analytical Biochemistry, No. 166, pp. 368-379, 1987) and transferred onto a nitrocellulose membrane (BioRad). Subsequently, an antibody specific to phosphorylated EGFR (Cell signaling technology, Code# 2232) was used to detect an antibody with an ECL system (Amersham) to quantify the amount of phosphorylated protein by an image analysis.

## C=C(C)[C@H]1Cc2c(ccc3c2O[C@@H]2COc4cc(OC)c(OC)cc4[C@@H]2C3=O)O1 [rotenone]
[1]
  IC50: 4 nM
[2]
  IC50: 500 nM
HER2; Example 2, 4-fold dilution series from 1 µmol/L in 5 steps, 2 hours
  HER2 phosphorylation: suppression of HER2 phosphorylation was confirmed
HER2; Example 6, 1, 0.333, 0.111, 0.033 and 0.011 µmol/L, two hours
  HER2 phosphorylation: decreased dose-dependently
Akt
  Akt phosphorylation: suppressions of Akt and MAPK phosphorylations were also confirmed
MAPK
  MAPK phosphorylation: suppressions of Akt and MAPK phosphorylations were also confirmed
Phosphorylated AMPK
  amount of AMPK phosphorylation: increased dose-dependently
AMPK
  amount of AMPK protein itself: A quantitative change was not observed
EGFR
  EGFR phosphorylation: No suppression of EGFR phosphorylation was observed
